{
  "source": "ChEMBL document CHEMBL1201862",
  "about": "“PubChem BioAssay data set” (2004)",
  "key": {"[1]": {"biological_target": "T1, Neuropeptide Y receptor type 2 (Homo sapiens, UniProt P49146)", "T1 sequence (P49146 whole entry)": "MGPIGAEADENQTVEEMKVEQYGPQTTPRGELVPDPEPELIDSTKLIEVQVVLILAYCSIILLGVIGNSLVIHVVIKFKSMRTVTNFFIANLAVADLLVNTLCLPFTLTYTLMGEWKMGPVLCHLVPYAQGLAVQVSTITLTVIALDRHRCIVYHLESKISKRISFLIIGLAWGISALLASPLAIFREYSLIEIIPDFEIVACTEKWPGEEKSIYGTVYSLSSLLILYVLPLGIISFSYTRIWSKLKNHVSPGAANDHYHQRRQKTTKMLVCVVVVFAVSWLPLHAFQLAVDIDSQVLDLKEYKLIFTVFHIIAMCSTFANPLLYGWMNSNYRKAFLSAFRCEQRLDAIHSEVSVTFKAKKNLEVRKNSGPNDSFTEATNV", "experiment": "NPY-Y2 antagonist potency, selectivity check, dose response, counter-screen for NPY-Y1 antagonist project, cell-based (AID 1278)", "assay_type": "functional"}, "[2]": {"biological_target": "T2, Neuropeptide Y receptor type 1 (Homo sapiens, UniProt P25929)", "T2 sequence (P25929 whole entry)": "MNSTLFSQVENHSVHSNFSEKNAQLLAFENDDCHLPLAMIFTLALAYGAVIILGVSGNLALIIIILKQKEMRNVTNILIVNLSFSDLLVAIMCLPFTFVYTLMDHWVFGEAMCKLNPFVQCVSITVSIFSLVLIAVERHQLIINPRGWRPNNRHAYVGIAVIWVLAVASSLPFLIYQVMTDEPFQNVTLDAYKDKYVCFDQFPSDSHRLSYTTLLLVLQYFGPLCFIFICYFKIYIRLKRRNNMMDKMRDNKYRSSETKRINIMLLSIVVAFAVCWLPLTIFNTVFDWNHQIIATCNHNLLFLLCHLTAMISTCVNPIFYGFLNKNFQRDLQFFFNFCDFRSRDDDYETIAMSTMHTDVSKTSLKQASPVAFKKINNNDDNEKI", "experiment": "NPY-Y1 receptor antagonist potency, dose response, cell-based (AID 1277)", "assay_type": "functional"}, "[3]": {"biological_target": "Epstein-Barr nuclear antigen 1 (Epstein-Barr virus (strain B95-8) (HHV-4) (Human herpesvirus 4), UniProt P03211)", "sequence (P03211 whole entry)": "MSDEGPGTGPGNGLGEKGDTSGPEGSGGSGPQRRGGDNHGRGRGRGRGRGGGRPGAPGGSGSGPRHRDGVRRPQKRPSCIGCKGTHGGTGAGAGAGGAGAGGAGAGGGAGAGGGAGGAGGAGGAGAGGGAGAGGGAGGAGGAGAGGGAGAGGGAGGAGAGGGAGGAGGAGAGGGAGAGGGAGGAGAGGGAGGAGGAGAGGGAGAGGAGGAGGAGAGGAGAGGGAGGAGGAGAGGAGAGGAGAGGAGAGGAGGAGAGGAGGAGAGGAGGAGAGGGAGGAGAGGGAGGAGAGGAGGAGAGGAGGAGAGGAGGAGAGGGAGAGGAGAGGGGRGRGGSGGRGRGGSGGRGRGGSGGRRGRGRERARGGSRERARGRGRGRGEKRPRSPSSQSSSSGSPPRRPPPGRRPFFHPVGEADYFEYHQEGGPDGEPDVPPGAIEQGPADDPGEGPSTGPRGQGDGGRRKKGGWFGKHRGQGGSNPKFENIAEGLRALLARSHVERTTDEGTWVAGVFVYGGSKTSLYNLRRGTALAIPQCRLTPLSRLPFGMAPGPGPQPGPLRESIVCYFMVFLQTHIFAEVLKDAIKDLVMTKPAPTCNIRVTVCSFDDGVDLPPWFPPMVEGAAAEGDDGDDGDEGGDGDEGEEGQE", "experiment": "EBNA-1 inhibitors, dose response, biochemical, fluorescence polarization, 1536-well (AID 2381);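 further: fluorescence polarization of a Cy5 DNA probe bound by EBNA-1 protein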", "design": "species or system human gammaherpesvirus 4"}, "[4]": {"biological_target": "Lytic switch protein BZLF1 (Epstein-Barr virus (strain B95-8) (HHV-4) (Human herpesvirus 4), UniProt P03206)", "sequence (P03206 whole entry)": "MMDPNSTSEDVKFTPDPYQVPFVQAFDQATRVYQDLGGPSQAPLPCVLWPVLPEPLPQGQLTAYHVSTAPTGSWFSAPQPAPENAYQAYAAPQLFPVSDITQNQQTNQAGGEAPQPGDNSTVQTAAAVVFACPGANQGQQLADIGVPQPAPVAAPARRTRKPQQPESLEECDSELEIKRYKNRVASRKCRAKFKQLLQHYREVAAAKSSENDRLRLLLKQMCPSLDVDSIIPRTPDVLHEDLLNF", "experiment": "EBV ZTA inhibitors, dose response, counter-screen for EBNA-1 inhibitor project, biochemical, fluorescence polarization, Epstein-Barr virus, 1536-well (AID 2377);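 further: fluorescence polarization of Cy5-labelled ZRE DNA probe bound by purified Zta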", "design": "species or system human gammaherpesvirus 4"}, "[5]": {"biological_target": "T3, RNA-binding protein pos-1 (Caenorhabditis elegans, UniProt G5EF15)", "T3 sequence (G5EF15 whole entry)": "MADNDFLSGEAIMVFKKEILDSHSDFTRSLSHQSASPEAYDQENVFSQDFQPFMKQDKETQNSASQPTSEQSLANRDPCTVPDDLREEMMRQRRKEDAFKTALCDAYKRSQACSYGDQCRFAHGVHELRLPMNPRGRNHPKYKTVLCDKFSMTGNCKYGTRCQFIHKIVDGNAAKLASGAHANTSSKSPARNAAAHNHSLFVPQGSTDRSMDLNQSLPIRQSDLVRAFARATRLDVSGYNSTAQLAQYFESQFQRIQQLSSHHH", "experiment": "inhibitors of POS-1/mex-3 RNA binding, dose response, biochemical, fluorescence polarization (AID 1964);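 further: purified POS-1 fused to maltose binding protein made in E. coli; potency of compounds blocking POS-1 binding to fluorescent RNA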"}, "Bcl-2-related protein A1 [6]": {"biological_target": "T4, Bcl-2-related protein A1 (Mus musculus, UniProt Q07440)", "T4 sequence (Q07440 whole entry)": "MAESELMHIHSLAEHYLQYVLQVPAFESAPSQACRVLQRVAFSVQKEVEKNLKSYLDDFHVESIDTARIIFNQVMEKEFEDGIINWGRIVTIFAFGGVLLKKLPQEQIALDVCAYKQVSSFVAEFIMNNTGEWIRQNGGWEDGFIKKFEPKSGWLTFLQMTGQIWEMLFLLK", "experiment": "Bfl-1 inhibitors, primary screen, biochemical, fluorescence polarization, FITC-Bid, mouse (AID 432)"}, "[7]": {"biological_target": "T5, Zinc finger protein mex-5 (Caenorhabditis elegans, UniProt Q9XUB2)", "T5 sequence (Q9XUB2 whole entry)": "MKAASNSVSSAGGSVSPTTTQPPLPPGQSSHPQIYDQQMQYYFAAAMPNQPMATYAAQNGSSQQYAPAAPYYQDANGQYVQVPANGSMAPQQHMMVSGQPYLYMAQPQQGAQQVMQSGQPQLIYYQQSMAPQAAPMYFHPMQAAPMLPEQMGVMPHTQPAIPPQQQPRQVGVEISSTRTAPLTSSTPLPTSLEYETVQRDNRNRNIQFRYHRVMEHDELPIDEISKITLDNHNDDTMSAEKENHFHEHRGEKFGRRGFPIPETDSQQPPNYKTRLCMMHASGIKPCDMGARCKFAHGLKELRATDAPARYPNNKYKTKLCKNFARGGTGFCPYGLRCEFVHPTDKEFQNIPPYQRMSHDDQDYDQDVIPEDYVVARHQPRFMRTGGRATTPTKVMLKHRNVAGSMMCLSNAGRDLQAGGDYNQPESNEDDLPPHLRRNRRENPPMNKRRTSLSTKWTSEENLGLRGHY", "experiment": "MEX-5/TCR-2 RNA interaction inhibitors, dose response, biochemical, C. elegans, fluorescence polarization (AID 1960)"}, "Bcl-2-related protein A1 [8]": {"biological_target": "T4, Bcl-2-related protein A1", "experiment": "Bfl-1 inhibitors blocking BH3 peptide binding, confirmation, biochemical, TR-FRET, mouse Bfl-1 (AID 621);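 further: TR-FRET binding of GST-Bfl-1 to FITC-labelled Bid peptide via terbium antibody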"}, "14-3-3 protein gamma": {"biological_target": "14-3-3 protein gamma (Homo sapiens, UniProt P61981)", "sequence (P61981 whole entry)": "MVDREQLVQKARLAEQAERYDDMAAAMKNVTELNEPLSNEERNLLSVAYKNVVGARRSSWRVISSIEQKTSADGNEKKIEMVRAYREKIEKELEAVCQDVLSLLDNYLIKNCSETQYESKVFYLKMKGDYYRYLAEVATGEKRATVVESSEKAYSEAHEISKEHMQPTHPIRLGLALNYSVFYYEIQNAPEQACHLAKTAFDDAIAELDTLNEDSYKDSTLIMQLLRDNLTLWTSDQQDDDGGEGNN", "experiment": "modulators of 14-3-3 gamma client binding – dose response (AID 711)", "assay_type": "functional"}, "[9]": {"experiment": "inhibitors of Bluetongue virus cytopathic effect, confirmation, arbovirus, BSR cells (AID 1250);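 further: protection from viral cytopathic effect measured as cell viability by ATP luminescence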", "assay_type": "functional"}, "Vero": {"system": "Vero", "experiment": "Vero cell cytotoxicity, cytotoxicity control for flavivirus capping enzyme inhibitors (AID 588742)", "assay_type": "functional", "settings": "Chlorocebus sabaeus"}},
  "note": "Activity calls are given as the source filed them.",
  "data": [
    {"molecule": "CNCc1cc(Cl)cc(OC)c1OC(C)C", "values": [
      {"measurement": "IC50", "setting": "[1]", "result": "> 35 µM (not active)"},
      {"measurement": "IC50", "setting": "[2]", "result": "> 35 µM (not active)"}
    ]},
    {"molecule": "N#C/C(=C\\c1cn(Cc2ccccc2F)c2ccccc12)C(=O)NCc1ccco1", "values": [
      {"measurement": "IC50", "setting": "[3]", "result": "6.53 µM (active)"},
      {"measurement": "IC50", "setting": "[4]", "result": "> 111 µM (not active)"}
    ]},
    {"molecule": "Cc1ccc(C2C3CN(C(C)C)CC=C3C(C#N)=C(N)C2(C#N)C#N)cc1", "note": "(stereo unspecified)", "values": [
      {"measurement": "EC50", "setting": "[5]", "result": "7.15 µM (inconclusive)"},
      {"measurement": "IC50", "setting": "Bcl-2-related protein A1 [6]", "result": "> 100 µM (not active)"},
      {"measurement": "EC50", "setting": "[7]", "result": "8.29 µM (inconclusive)"},
      {"measurement": "IC50", "setting": "Bcl-2-related protein A1 [8]", "result": "> 100 µM (not active)"},
      {"measurement": "IC50", "setting": "14-3-3 protein gamma", "result": "> 50 µM (not active)"}
    ]},
    {"molecule": "CCOc1ccc(CNc2ccc3c(c2)nc(C)n3C)cc1", "values": [
      {"measurement": "IC50", "setting": "[9]", "result": "26.6 µM (active)"},
      {"measurement": "CC50", "setting": "Vero", "result": "> 40 µM (active)"}
    ]}
  ]
}
